Test results as given in paper PMC5607274, “An iterative compound screening contest method for identifying target protein inhibitors using the tyrosine-protein kinase Yes” (Scientific Reports, 2017).

Target: T1, human recombinant Yes [a.a. 2–543 (end)] (Homo sapiens, UniProt P07947)
T1 construct: human recombinant Yes [a.a; 2–543 (end)]; purchased BPS Bioscience 40488
Experiment: ADP-Glo kinase assay, inhibition rates of Yes phosphorylation activity (first and second screening)
Format: biochemical
Settings: 10 μmol L−1 compound; for First screening IR (inhibition rate): mean of n = 4 wells
How it was run: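 ADP-Glo luminescence measured inhibition of human recombinant Yes (a.a. 2–543) phosphorylation activity. In the first screen, each compound ran in 4 wells and inhibition rates were averaged. The second screen retested hits as compounds dissolved from fresh powder.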

T1 sequence (P07947 2-543): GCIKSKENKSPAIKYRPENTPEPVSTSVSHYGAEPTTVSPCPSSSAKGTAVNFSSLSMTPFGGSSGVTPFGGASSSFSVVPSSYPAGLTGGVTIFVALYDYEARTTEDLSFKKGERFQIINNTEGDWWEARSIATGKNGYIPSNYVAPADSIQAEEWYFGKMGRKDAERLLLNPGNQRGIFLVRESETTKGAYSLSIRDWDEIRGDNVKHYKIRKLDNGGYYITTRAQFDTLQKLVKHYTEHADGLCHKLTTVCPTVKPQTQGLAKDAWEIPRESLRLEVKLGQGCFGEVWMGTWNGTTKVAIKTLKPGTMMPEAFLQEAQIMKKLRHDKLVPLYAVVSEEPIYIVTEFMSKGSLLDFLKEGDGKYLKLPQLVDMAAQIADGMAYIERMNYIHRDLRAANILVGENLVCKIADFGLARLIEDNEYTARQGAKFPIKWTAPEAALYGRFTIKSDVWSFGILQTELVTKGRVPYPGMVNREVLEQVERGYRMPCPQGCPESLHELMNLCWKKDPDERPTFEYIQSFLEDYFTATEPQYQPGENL

Structure (SMILES)	First screening IR (inhibition rate) [%]	Second screening IR (inhibition rate) (second screening, dissolved from fresh powder, n = 4) [%]
CN(C)c1nc(N)nc(CSc2nnc(-c3ccccc3)n2C)n1 [Compound Z193722710]	6	–
CCC(Sc1n[nH]c(C(C)C)n1)C(=O)Nc1ccc(F)cc1 (stereo not drawn) [Compound Z193785446]	-8	–
Cc1ccc(C)c(C(=O)CCC(=O)NC(C)c2nc3ccccc3[nH]2)c1 (stereo not drawn) [Compound Z195395734]	1	–
Cc1c(C#N)c(NC(=O)CN2CCN(CC(=O)N3CCCCC3)CC2)n(-c2cccc(F)c2)c1C [Compound Z195846234]	0	–
CC(C)CCn1c(CN2CCN(Cc3ccco3)CC2)nc2c1c(=O)[nH]c(=O)n2Cc1ccccc1 [Compound Z195914778]	-3	–
CC(C)CNC(=O)CN1CCN(c2nc(-c3ccccn3)nc3scc(-c4ccccc4)c23)CC1 [Compound Z196146788]	2	–
CC(=O)N1CC=C(c2ccc(Oc3nc(-c4cccnc4)nc4ccccc34)cc2)CC1 [Compound Z196157908]	-13	–
CN1C/C(=C/c2ccc(SC(F)(F)F)cc2)c2nc3ccccc3c(C(=O)O)c2C1 [Compound Z196352976]	-14	–
Cc1cn2c(/C=C/C(=O)c3ccc(OCC(=O)N(C)C)cc3)c(C)nc2s1 [Compound Z196370782]	-2	–
CN(C)c1nc(N)nc(CSCC(=O)Nc2cccc(Cl)c2Cl)n1 [Compound Z197452730]	4	–
CN(C)c1nc(N)nc(CSCCOc2ccccc2F)n1 [Compound Z197453168]	9	–
CN(C)c1nc(N)nc(CSCCOc2ccc(F)cc2)n1 [Compound Z197453372]	-8	–
Cc1cc(C(=O)CSCc2nc(N)nc(N(C)C)n2)c(C)n1C1CC1 [Compound Z197454120]	4	–
CC(SCc1nc(N)nc(N(C)C)n1)C(=O)Nc1ccc(F)cc1F (stereo not drawn) [Compound Z197454476]	-5	–
CC(SCc1nc(N)nc(N(C)C)n1)C(=O)Nc1cc(F)ccc1F (stereo not drawn) [Compound Z197454478]	15	–
CC(SCc1nc(N)nc(N(C)C)n1)C(=O)NC1CCCCCC1 (stereo not drawn) [Compound Z197454502]	1	–
CC(SCc1nc(N)nc(N(C)C)n1)C(=O)Nc1ccc2c(c1)CCC2 (stereo not drawn) [Compound Z197454542]	5	–
COc1ccc(C)cc1C(C)NC(=O)CCc1nc2ccccc2[nH]1 (stereo not drawn) [Compound Z197873940]	60	–
Nc1nc(-c2ccccc2)c2cc(C(=O)c3ccccc3O)cnn12 [Compound Z199055452]	7	–
CN(Cc1ccc(N2CCOCC2)cc1)Cc1c(O)ccc2ccncc12 [Compound Z199499666]	-18	–
CS(=O)(=O)c1ccc(N2CCCCCC2)c(S(C)(=O)=O)c1 [Compound Z199538216]	51	-10
CN(CCO)c1ccc(S(C)(=O)=O)cc1S(C)(=O)=O [Compound Z199538264]	3	–
CCCCN(C)c1ccc(S(C)(=O)=O)cc1S(C)(=O)=O [Compound Z199538358]	8	–
CCC(NC(=O)c1cc(C)nc2c1cnn2C(C)C)c1ccc(C)cc1 (stereo not drawn) [Compound Z203056244]	-5	–
COc1ccc(S(=O)(=O)N[C@@H](C)C(=O)N2CC=C(c3c(OC)cc(OC)cc3OC)CC2)cc1 [Compound Z203177000]	0	–
Cc1cc(C(=O)Nc2ccc(F)c(F)c2)c2cnn(C(C)C)c2n1 [Compound Z203269322]	39	–
